The values below come from patent publication US20090054411A1, “4-ANILINOQUINOLINE-3-CARBOXAMIDES AS CSF-1R KINASE INHIBITORS” (AstraZeneca AB, priority 2006, published 2009).

In this assay the target is T1, CSF-1R (Homo sapiens, UniProt P07333).
T1 construct: His-tagged kinase domain of CSF-1R (i.e., amino acids 568-912, GeneBank ID NM_005211); His; made in house; host or cells: baculovirus-infected SF+Express insect cells
T1 sequence (P07333 568-912): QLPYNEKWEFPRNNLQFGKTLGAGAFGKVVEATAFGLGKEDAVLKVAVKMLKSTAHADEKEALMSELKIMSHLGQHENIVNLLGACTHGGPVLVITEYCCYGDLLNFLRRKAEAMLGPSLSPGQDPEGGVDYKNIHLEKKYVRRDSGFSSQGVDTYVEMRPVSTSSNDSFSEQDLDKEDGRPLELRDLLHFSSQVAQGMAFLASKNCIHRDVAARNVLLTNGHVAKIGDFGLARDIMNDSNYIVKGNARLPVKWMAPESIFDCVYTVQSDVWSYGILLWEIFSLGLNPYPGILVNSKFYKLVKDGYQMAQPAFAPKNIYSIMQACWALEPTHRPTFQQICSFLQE
Put plainly: CSF-1R In Vitro AlphaScreen Assay. Type of assay: biochemical. The following applies: purified His-tagged kinase domain of CSF-1R, pEY substrate, 90 μM ATP. Here is the method:
Activity of purified CSF-1R was determined in vitro using an Amplified Luminescent Proximity Homogeneous Assay (ALPHA)(Perkin Elmer), which measures phosphorylation of the CSF-1R substrate, biotinylated poly-glutamine-tyrosine peptide (pEY-HTRF CisBio 61GT0BLD), as described below.
The phosphorylation of the CSF-1R substrate in the presence and absence of the compound of interest was determined. […] Plates were incubated at 25° C. for 18 hours in the dark. Phosphorylated substrate was detected by an EnVision plate reader (Perkin Elmer) 680 nm excitation, 520-620 nm emission. Data was graphed and IC50s calculated using Excel Fit (Microsoft).
On the technique in general: In Alpha technology, singlet oxygen from a donor bead excites a nearby acceptor bead.

pIC50: −log10 of the molar value.

One may read the pIC50 as the negative decadic logarithm of the IC50, by convention in mol/L. A high value points to a small IC50. Consider `COc1cc2c(Nc3cccc(Cl)c3Cl)c(C(N)=O)cnc2cc1N1CCN(C)CC1` [Example 9], for which the pIC50 was 7.64.

`NC(=O)c1cnc2cc(F)c(N3CCOCC3)cc2c1Nc1ccc(F)cc1F` [Example 18] gave a pIC50 of 6.81.
